Measurements from patent US20100331315A1, “RHODANINES AND RELATED HETEROCYCLES AS KINASE INHIBITORS” (priority 2009, published 2010).
Read-outs that look alike come from different tables or passages of the source.

Experiments:
recombinant PIM-1 = recombinant PIM-1 (Homo sapiens, UniProt P11309); experiment: PIM-1 assay (33P-ATP filter plate); type: biochemical; conditions: read-out: PIM1: IC50
Experimental: The following procedure was used to assay the PIM-1 kinase activity of compounds of the invention. Other methods for assaying PIM-1 and other PIM kinases, as well as methods to assay for activity against the various kinases are known in the art.
In a final reaction volume of 50 ul, recombinant PIM-1 (1 ng) was incubated with 12 mM MOPS pH 7.0, 0.4 mM EDTA, glycerol 1%, brij 35 0.002%, 2-mercaptoethanol 0.02%, BSA 0.2 mg/ml, 100 uM KKRNRTLTK, 10 mM MgAcetate, 15 uM ATP, [γ-^33P-ATP] (specific activity approx. 500 cpm/pmol), DMSO 4% and test inhibitor compound at the required concentration. The reaction was initiated by the addition of the Magnesium ATP mixture. After 40 min incubation at 23° C., the reactions were quenched by the addition of 100 ul 0.75% Phosphoric acid, and the labeled peptide collected by filtration through a phosphocellulose filter plate. The plate was washed 4 times with 0.075% phosphoric acid (100 ul per well) and then, after the addition of scintillation fluid (20 ul per well), the counts were measured by a scintillation counter.

MDAMB231 = experiment: Alamar Blue cell proliferation assay, MDAMB231; type: cell-based; conditions: Homo sapiens, MDA-MB-231, MDAMB231, Table 1, read-out: AB: MDAMB231 IC50
Experimental: (§1) A representative cell-proliferation assay protocol using Alamar Blue dye (stored at 4° C., use 20 ul per well) is described hereafter.
(§2) a. Split and trypsinize cells.
(§3) b. Count cells using hemocytometer.
(§4) c. Plate 4,000-5,000 cells per well in 100 μl of medium and seed into a 96-well plate according to the following plate layout. Add cell culture medium only to wells B10 to B12. Wells B1 to B9 have cells but no compound added.
(§5) d. Add 100 μl of 2× drug dilution to each well in a concentration shown in the plate layout above. At the same time, add 100 μl of media into the control wells (wells B10 to B12). Total volume is 200 μl/well.
(§6) e. Incubate four (4) days at 37° C., 5% CO2 in a humidified incubator.
(§7) f. Add 20 μl Alamar Blue reagent to each well.
(§8) g. Incubate for four (4) hours at 37° C., 5% CO2 in a humidified incubator.
(§9) h. Record fluorescence at an excitation wavelength of 544 nm and emission wavelength of 590 nm using a microplate reader.
(§10) In the assays, cells are cultured with a test compound for approximately four days, the dye is then added to the cells and fluorescence of […] dye is detected after approximately four hours. Different types of cells can be utilized in the assays (e.g., HCT-116 human colorectal carcinoma cells, PC-3 human prostatic cancer cells and MiaPaca human pancreatic carcinoma cells).

[1] = tested on: PC-3 human prostatic cancer cells; experiment: Alamar Blue cell proliferation assay, PC3; type: cell-based
Experimental: as §1, §2, §3, §4, §5, §6, §7, §8, §9, §10

[2] = tested on: MiaPaca human pancreatic carcinoma cells; experiment: Alamar Blue cell proliferation assay, MiaPaCa; type: cell-based; conditions: MIA PaCa-2, Table 1, read-out: AB: MiaPaCa IC50
Experimental: as §1, §2, §3, §4, §5, §6, §7, §8, §9, §10

K-562 = experiment: Alamar Blue cell proliferation assay, K-562; type: cell-based; conditions: Homo sapiens
Experimental: as §1, §2, §3, §4, §5, §6, §7, §8, §9, §10

recombinant human CK2 = biological target: T1, recombinant human CK2 (Homo sapiens, UniProt P68400); experiment: CK2 assay (cell-free, 33P-ATP filter plate); type: biochemical
T1 construct: purchased Upstate
Experimental: Modulatory activity of compounds described herein was assessed in vitro in cell-free CK2 assays by the following method.
Test compounds in aqueous solution were added at a volume of 10 microliters, to a reaction mixture comprising 10 microliters Assay Dilution Buffer (ADB; 20 mM MOPS, pH 7.2, 25 mM beta-glycerolphosphate, 5 mM EGTA, 1 mM sodium orthovanadate and 1 mM dithiothreitol), 10 microliters of substrate peptide (RRRDDDSDDD, dissolved in ADB at a concentration of 1 mM), 10 microliters of recombinant human CK2 (25 ng dissolved in ADB; Upstate). Reactions were initiated by the addition of 10 microliters of ATP Solution (90% 75 mM MgCl2, 75 micromolar ATP dissolved in ADB; 10% [γ-^33P]ATP (stock 1 mCi/100 μl; 3000 Ci/mmol (Perkin Elmer) and maintained for 10 minutes at 30 degrees C. The reactions were quenched with 100 microliters of 0.75% phosphoric acid, then transferred to and filtered through a phosphocellulose filter plate (Millipore). After washing each well 5 times with 0.75% phosphoric acid, the plate was dried under vacuum for 5 min and, following the addition of 15 ul of scintillation fluid to each well, the residual radioactivity was measured using a Wallac luminescence counter.

MV-4-11 = experiment: Alamar Blue cell proliferation assay, MV-4-11; type: cell-based; conditions: Homo sapiens, MV4-11, MV-4-11, Table 1, read-out: AB: MV-4-11 IC50
Experimental: as §1, §2, §3, §4, §5, §6, §7, §8, §9, §10

[3] = PC-3, PC3, Table 1, read-out: AB: PC3
[4] = K562, K-562, Table 1, read-out: AB: K-562 IC50

Sequence of recombinant PIM-1 (P11309 whole entry): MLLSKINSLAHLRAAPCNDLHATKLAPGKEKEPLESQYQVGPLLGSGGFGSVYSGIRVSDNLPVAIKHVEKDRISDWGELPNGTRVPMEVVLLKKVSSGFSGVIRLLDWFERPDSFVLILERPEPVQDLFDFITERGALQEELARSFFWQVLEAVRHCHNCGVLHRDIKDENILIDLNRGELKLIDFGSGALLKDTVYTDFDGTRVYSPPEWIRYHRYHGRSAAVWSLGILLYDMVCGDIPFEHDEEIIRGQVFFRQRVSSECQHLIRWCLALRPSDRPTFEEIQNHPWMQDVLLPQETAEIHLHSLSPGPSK
T1 sequence (P68400 whole entry): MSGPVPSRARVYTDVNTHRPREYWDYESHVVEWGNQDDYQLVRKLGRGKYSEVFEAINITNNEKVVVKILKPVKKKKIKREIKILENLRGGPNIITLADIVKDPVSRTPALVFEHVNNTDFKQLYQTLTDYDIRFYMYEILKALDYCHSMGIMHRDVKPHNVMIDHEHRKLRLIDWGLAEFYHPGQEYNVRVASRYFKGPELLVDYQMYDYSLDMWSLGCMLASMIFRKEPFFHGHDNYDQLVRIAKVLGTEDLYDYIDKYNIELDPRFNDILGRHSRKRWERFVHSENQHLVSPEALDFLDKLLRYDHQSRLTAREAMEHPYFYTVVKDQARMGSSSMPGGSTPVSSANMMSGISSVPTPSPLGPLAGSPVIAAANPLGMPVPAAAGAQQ
T1 sequence (P67870 whole entry partner): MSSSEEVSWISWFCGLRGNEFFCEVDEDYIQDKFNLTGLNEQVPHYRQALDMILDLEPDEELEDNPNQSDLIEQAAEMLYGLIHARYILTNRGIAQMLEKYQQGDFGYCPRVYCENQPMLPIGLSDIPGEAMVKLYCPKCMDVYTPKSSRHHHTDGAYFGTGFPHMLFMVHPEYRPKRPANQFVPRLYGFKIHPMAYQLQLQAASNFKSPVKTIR

Row | Structure (SMILES) | IC50 (recombinant PIM-1; Table 1) | IC50 (MDAMB231) | IC50 [1, 3] | IC50 [2] | IC50 (K-562; [4]) | IC50 (recombinant human CK2; Table 1) | IC50 (MV-4-11) | also measured
1 | CCN(CC)CCNC(=O)c1cc(-c2ccc(/C=C3\SC(=S)NC3=O)o2)ccc1Cl | 2 nM | > 10000 nM | > 10000 nM | > 10000 nM | > 10000 nM | 10 nM |  | 
2 | COCCNC(=O)c1cc(-c2ccc(/C=C3\SC(=S)NC3=O)o2)ccc1Cl | 42 nM | > 10000 nM | > 10000 nM | > 10000 nM | > 10000 nM | 54 nM |  | 
3 | CC(C)N1CCN(C(=O)c2ccc(-c3ccc(/C=C4\SC(=S)NC4=O)o3)cc2)CC1 | 67 nM | > 10000 nM | > 30000 nM | > 10000 nM | > 10000 nM |  | > 10000 nM | 
4 | NS(=O)(=O)c1ccc(-c2ccc(/C=C3\SC(=S)NC3=O)o2)cc1 | 15 nM |  | > 10000 nM |  |  | 9 nM |  | 
5 | O=C1NC(=S)S/C1=C\c1ccc(-c2ccc(Cl)c(C(=O)O)c2)o1 | 226 nM | > 10000 nM |  | > 10000 nM | > 10000 nM | 107 nM | > 10000 nM | 
6 | COCCNC(=O)c1ccc(Cl)c(-c2ccc(/C=C3\SC(=S)NC3=O)o2)c1 | 3 nM | > 10000 nM | > 10000 nM | > 10000 nM | 7620 nM | 10 nM |  | 
7 | CN1CCCN(C(=O)c2cccc(-c3ccc(/C=C4/NC(=O)NC4=O)o3)c2)CC1 |  |  |  |  |  |  |  | IC50 (recombinant PIM-1; Table 3): > 5000 nM; IC50 (recombinant human CK2; Table 3): > 5000 nM
8 | O=C1NC(=S)S/C1=C\c1ccc(-c2cccc(C(=O)Nn3cnnc3)c2)o1 | 47 nM | > 10000 nM | > 30000 nM | > 10000 nM | > 10000 nM | 281 nM |  | 
9 | CN1CCCN(c2cncc(-c3ccc(/C=C4\SC(=O)NC4=O)o3)n2)CC1 |  |  |  |  |  |  |  | IC50 (recombinant PIM-1; Table 4): 22 nM; IC50 ([1]; PC3, Table 4, read-out: AB: PC3 IC50): > 10000 nM; IC50 (K-562; K562, K-562, Table 4, read-out: AB: K-562 IC50): 146 nM; IC50 (recombinant human CK2; Table 4): 6 nM
10 | O=C1NC(=O)/C(=C\c2ccc(-c3cccc(C(=O)O)c3)o2)N1 |  |  |  |  |  |  |  | IC50 (recombinant PIM-1; Table 3): > 5000 nM; IC50 (recombinant human CK2; Table 3): 2060 nM
11 | CN1CCN(C(=O)c2ccc(-c3ccc(/C=C4\SC(=S)NC4=O)o3)cc2)CC1 | 64 nM | > 10000 nM | > 30000 nM | > 10000 nM | > 10000 nM |  | > 10000 nM | 
12 | NS(=O)(=O)c1ccc(-c2ccc(/C=C3\NC(=O)NC3=O)o2)cc1 |  |  |  |  |  |  |  | IC50 (recombinant PIM-1; Table 3): 276 nM; IC50 (recombinant human CK2; Table 3): 458 nM
13 | NS(=O)(=O)c1ccc(-c2ccc(/C=C3\SC(=O)NC3=O)o2)cc1 |  |  |  |  |  |  |  | IC50 (recombinant PIM-1; Table 2): 51 nM; IC50 ([1]; PC3, Table 2, read-out: AB: PC3 IC50): > 10000 nM; IC50 (recombinant human CK2; Table 2): 35 nM
14 | CCN(CC)CCNC(=O)c1ccc(Cl)c(-c2ccc(/C=C3\SC(=S)NC3=O)o2)c1 | < 1 nM | > 10000 nM | > 10000 nM |  | 64 nM | 3 nM | < 30 nM | 
15 | CN1CCCN(C(=O)c2ccc(-c3ccc(/C=C4\SC(=S)NC4=O)o3)cc2)CC1 | 25 nM | > 10000 nM | > 30000 nM | > 10000 nM | > 10000 nM |  | > 10000 nM | 
16 | CN1CCCN(C(=O)c2cccc(-c3ccc(/C=C4\C(=O)NC(=O)N4C)o3)c2)CC1 |  |  |  |  |  |  |  | IC50 (recombinant PIM-1; Table 3): > 5000 nM; IC50 (recombinant human CK2; Table 3): 1820 nM
17 | CN1CCC(N(C)C(=O)c2ccc(-c3ccc(/C=C4\SC(=S)NC4=O)o3)cc2)C1 (stereo not drawn) | 37 nM | > 10000 nM | > 30000 nM | > 10000 nM | > 10000 nM |  | > 10000 nM | 
